The values that follow come from patent US9623123B2, “Fluorescent conjugated polymers with a bodipy-based backbone and uses thereof” (Michigan Technological University, priority 2008, dated 2017).

One data set is described as follows: UV-visible absorption and fluorescence spectra, fluorescence quantum yields in solution. Type of data set: physicochemical. The following applies: methylene chloride solution (Table 9, Example 13). The procedure:
^1H NMR and ^13C NMR spectra were taken on a 400 MHz Varian Unity Inova spectrophotometer instrument. ^1H and ^13C NMR spectra were recorded in CDCl3, chemical shifts (δ) are given in ppm relative to solvent peaks (1H: δ 7.26; 13C: δ 77.3) as internal standard. UV spectra were taken on a Hewlett Packard 8452A Diode Array UV-visible spectrophotometer. Fluorescence spectra were recorded on a Spex Fluorolog 1681 0.22 m steady-state fluorometer. Fluorescence quantum yields of BODIPY dyes and polymers were measured in methylene chloride and DMF, and calculated by using fluorescein excited at 490 nm in 0.1 N NaOH as the reference absolute quantum efficiency (φn=85%). Molecular weights of the polymers were determined by gel permeation chromatography (“GPC”) by using a Waters Associates Model 6000A liquid chromatograph. Three American Polymer Standards Corp. Ultrastyragel columns in series with porosity indices of 10^3, 10^4, and 10^5 Å were used and housed in an oven thermostated at 30° C. Mobile phase was HPLC grade THF which was filtered and degassed by vacuum filtration through a 0.5 μm fluoropore filter prior to use. The polymers were detected by a Waters Model 440 ultraviolet absorbance detector at a wavelength of 254 nm and a Waters Model 2410 refractive index detector. Molecular weights were measured relative to polystyrene standards. An Enraf Nonius CAD-4 X-Ray diffractometer was used in the crystal structure determination. The windows program WinGX was used as the interface for the solution and refinement of the model. The data were first reduced and corrected for absorption using the psi-scans, and then solved using the program SIR2004. The model was refined using SHELXL97.
(§1) ^1H NMR and ^13C NMR spectra were taken on a 400 MHz Varian Unity Inova spectrophotometer instrument. ^1H and ^13C NMR spectra were recorded in CDCl3, and chemical shifts (5) are given in ppm relative to solvent peaks (at 7.24 ppm for ^1H spectra and at 77.3 for ^13C spectra) as internal standard. UV spectra were taken on a Hewlett-Packard 8452A Diode Array UV-visible spectrophotometer. Fluorescence spectra were recorded on a Spex Fluorolog 1681 0.22 m steady-state fluorometer. Fluorescence quantum yields of BODIPY dyes and polymers were measured in methylene chloride and calculated by using fluorescein excited at 490 nm in 0.1 N NaOH as the reference (its quantum efficiency of 85%). Fluorescence lifetimes were measured on a GL-3300 Nitrogen Laser laserstrobe PTI instrument and analyzed using FeliX32 software.
^1H NMR and ^13C NMR spectra were taken on a 400 MHz Varian Unity Inova spectrophotometer instrument. ^1H and ^13C NMR spectra were recorded in CDCl3, chemical shifts (δ) are given in ppm relative to solvent peaks (^1H: δ 7.26; ^13C: δ 77.3) as internal standard. UV spectra were taken on a Hewlett Packard 8452A Diode Array UV-visible spectrophotometer. Fluorescence spectra were recorded on a Spex Fluorolog 1681 0.22 m steady-state fluorometer. Fluorescence quantum yields of BODIPY dyes and polymers were measured in methylene chloride and DMF, and calculated by using fluorescein excited at 490 nm in 0.1 N NaOH as the reference quantum efficiency (φn=85%).^30,31 Molecular weights of the polymers were determined by gel permeation chromatography (GPC) by using a Waters Associates Model 6000A liquid chromatograph. Three American Polymer Standards Corp. Ultrastyragel columns in series with porosity indices of 10^3, 10^4, and 10^5 Å were used and housed in an oven thermostated at 30° C. Mobile phase was HPLC grade THF which was filtered and degassed by vacuum filtration through a 0.5 μm fluoropore filter prior to use. The polymers were detected by a Waters Model 440 ultraviolet absorbance detector at a wavelength of 254 nm and a Waters Model 2410 refractive index detector. Molecular weights were measured relative to polystyrene standards. […]
In the case of `CCCCCCCCCCCCOc1cc(C2=C3C(C)=C(I)C(C)=[N+]3[B-](F)(F)n3c(C)c(I)c(C)c32)cc(OCCCCCCCCCCCC)c1OCCCCCCCCCCCC` [Compound 4c], the Absorption maxima was 535 nm, the Emission maxima is on record as 550 nm and the Stokes shift was found to be 15 nm.
The like results for `C#CC1=C(C)C2=C(c3ccc(OCCCCCCCCCCCC)c(OCCCCCCCCCCCC)c3)c3c(C)c(C#C)c(C)n3[B-](F)(F)[N+]2=C1C` [Compound 6b] were, in that order, 540 nm, 5.52 nm and 12 nm.
The like results for `CCCCCCCCCCCCOc1ccc(C2=C3C(C)=CC(C)=[N+]3[B-](F)(F)n3c(C)cc(C)c32)cc1` [Compound 3a] were, in that order, 501 nm, 509 nm and 8 nm.
The like results for `CCCCCCCCCCCCOc1ccc(C2=C3C(C)=C(C#C[Si](C)(C)C)C(C)=[N+]3[B-](F)(F)n3c(C)c(C#C[Si](C)(C)C)c(C)c32)cc1` [Compound 5a] were, in that order, 554 nm, 569 nm and 15 nm.
Consider `C#CC1=C(C)C2=C(c3cc(OCCCCCCCCCCCC)c(OCCCCCCCCCCCC)c(OCCCCCCCCCCCC)c3)c3c(C)c(C#C)c(C)n3[B-](F)(F)[N+]2=C1C` [Compound 6c], for which the Absorption maxima came to 541 nm, the Emission maxima was 553 nm and the Stokes shift is 12 nm.
Turning to `C#CC1=C(C)C2=C(c3ccc(OCCCCCCCCCCCC)cc3)c3c(C)c(C#C)c(C)n3[B-](F)(F)[N+]2=C1C` [Compound 6a], the Absorption maxima is 539 nm, the Emission maxima worked out at 551 nm and the Stokes shift is given as 12 nm.

Still in this data set, the particulars now being: methylene chloride solution (Table 10, Example 14).
As for `C#CC1=C(C)C2=C(c3ccc(OCCCCCCCCCCCC)c(OCCCCCCCCCCCC)c3)c3c(C)c(C#C)c(C)n3[B-](F)(F)[N+]2=C1C` [Compound 6b], the Absorption maxima was determined as 539 nm and the Emission maxima was determined as 553 nm.
Molecule `CCCCCCCCCCCCOc1ccc(C2=C3C(C)=CC(C)=[N+]3[B-](F)(F)n3c(C)cc(C)c32)cc1` [Compound 3a] came in with an Absorption maxima of 501 nm and an Emission maxima of 510 nm.
Regarding `CCCCCCCCCCCCOc1ccc(C2=C3C(C)=C(C#C[Si](C)(C)C)C(C)=[N+]3[B-](F)(F)n3c(C)c(C#C[Si](C)(C)C)c(C)c32)cc1` [Compound 5a], the Absorption maxima is reported as 553 nm and the Emission maxima turned out to be 569 nm.
Regarding `C#CC1=C(C)C2=C(c3ccc(OCCCCCCCCCCCC)cc3)c3c(C)c(C#C)c(C)n3[B-](F)(F)[N+]2=C1C` [Compound 6a], the Absorption maxima is 538 nm and the Emission maxima was 552 nm.

The data set is the same for the next values; noted with them: methylene chloride solution; fluorescein standard (Table 9, Example 13).
`CCCCCCCCCCCCOc1cc(C2=C3C(C)=C(I)C(C)=[N+]3[B-](F)(F)n3c(C)c(I)c(C)c32)cc(OCCCCCCCCCCCC)c1OCCCCCCCCCCCC` [Compound 4c] displayed a Quantum yield of 2.3%.

Still in this data set, the particulars now being: methylene chloride solution; fluorescein standard (Table 10, Example 14).
`C#CC1=C(C)C2=C(c3ccc(OCCCCCCCCCCCC)c(OCCCCCCCCCCCC)c3)c3c(C)c(C#C)c(C)n3[B-](F)(F)[N+]2=C1C` [Compound 6b] yielded a Quantum yield of 67%.
Still for that read-out and setting: in the case of `CCCCCCCCCCCCOc1ccc(C2=C3C(C)=CC(C)=[N+]3[B-](F)(F)n3c(C)cc(C)c32)cc1` [Compound 3a] it was 76%.
As to `CCCCCCCCCCCCOc1ccc(C2=C3C(C)=C(C#C[Si](C)(C)C)C(C)=[N+]3[B-](F)(F)n3c(C)c(C#C[Si](C)(C)C)c(C)c32)cc1` [Compound 5a], the Quantum yield was determined as 71%.
In the case of `C#CC1=C(C)C2=C(c3ccc(OCCCCCCCCCCCC)cc3)c3c(C)c(C#C)c(C)n3[B-](F)(F)[N+]2=C1C` [Compound 6a], the Quantum yield was 63%.

Another data set can be described thus: Fluorescence lifetime measurement. Type of data set: physicochemical. The following applies: methylene chloride solution (Table 9, Example 13). The procedure:
as §1
^1H NMR and ^13C NMR spectra were taken on a 400 MHz Varian Unity Inova spectrophotometer instrument. ^1H and ^13C NMR spectra were recorded in CDCl3, and chemical shifts (δ) are given in ppm relative to solvent peaks (^1H, δ 7.26; ^13C, δ 77.3) as internal standard. UV spectra were taken on a Hewlett-Packard 8452A Diode Array UV-visible spectrophotometer. Fluorescence spectra were recorded on a Spex Fluorolog 1681 0.22 m steady-state fluorometer. Fluorescence quantum yields of BODIPY dyes and polymers were measured in methylene chloride and calculated by using fluorescein exCIted at 490 nm in 0.1 N NaOH as the reference (quantum effiCIency, cPn=85%). Fluorescence lifetimes were measured on a 010-3300 Nitrogen Laser laserstrobe PTI instrument and analyzed using FeliX32 software. Molecular weights of the polymers were determined by gel permeation chromatography (OPC) by using a Waters AssoCIates model 6000A liquid chromatograph. Three American Polymer Standards Corp. ultrastyragel columns in series with porosity indices of 103, 104, and 105 A were used and housed in an oven thermostatted at 30° C. The mobile phase was HPLC grade THF which was filtered and degassed by vacuum filtration through a 0.5, urn fluoropore filter prior to use. The polymers were detected by a Waters Model 440 ultraviolet absorbance detector at a wavelength of 254 nm and a Waters Model 2410 refractive index detector. Molecular weights were determined relative to polystyrene standards.
On to `CCCCCCCCCCCCOc1cc(C2=C3C(C)=C(I)C(C)=[N+]3[B-](F)(F)n3c(C)c(I)c(C)c32)cc(OCCCCCCCCCCCC)c1OCCCCCCCCCCCC` [Compound 4c], for which the Fluorescence lifetime was 0.19 ns.
`C#CC1=C(C)C2=C(c3ccc(OCCCCCCCCCCCC)c(OCCCCCCCCCCCC)c3)c3c(C)c(C#C)c(C)n3[B-](F)(F)[N+]2=C1C` [Compound 6b] registered a Fluorescence lifetime of 3.9 ns.
With `CCCCCCCCCCCCOc1ccc(C2=C3C(C)=CC(C)=[N+]3[B-](F)(F)n3c(C)cc(C)c32)cc1` [Compound 3a], the Fluorescence lifetime is reported as 3.9 ns.
Still for that read-out and setting: in the case of `CCCCCCCCCCCCOc1ccc(C2=C3C(C)=C(C#C[Si](C)(C)C)C(C)=[N+]3[B-](F)(F)n3c(C)c(C#C[Si](C)(C)C)c(C)c32)cc1` [Compound 5a] it was 4.4 ns; in that of `C#CC1=C(C)C2=C(c3cc(OCCCCCCCCCCCC)c(OCCCCCCCCCCCC)c(OCCCCCCCCCCCC)c3)c3c(C)c(C#C)c(C)n3[B-](F)(F)[N+]2=C1C` [Compound 6c], 3.0 ns; in that of `C#CC1=C(C)C2=C(c3ccc(OCCCCCCCCCCCC)cc3)c3c(C)c(C#C)c(C)n3[B-](F)(F)[N+]2=C1C` [Compound 6a], 3.6 ns.

The same data set, now with this note: methylene chloride solution (Table 10, Example 14).
`C#CC1=C(C)C2=C(c3ccc(OCCCCCCCCCCCC)c(OCCCCCCCCCCCC)c3)c3c(C)c(C#C)c(C)n3[B-](F)(F)[N+]2=C1C` [Compound 6b] yielded a Fluorescence lifetime of 5.9 ns.
On the same count and under the same terms, in the case of `CCCCCCCCCCCCOc1ccc(C2=C3C(C)=CC(C)=[N+]3[B-](F)(F)n3c(C)cc(C)c32)cc1` [Compound 3a] it was 3.8 ns.
On the same count and under the same terms, in the case of `CCCCCCCCCCCCOc1ccc(C2=C3C(C)=C(C#C[Si](C)(C)C)C(C)=[N+]3[B-](F)(F)n3c(C)c(C#C[Si](C)(C)C)c(C)c32)cc1` [Compound 5a] it was 4.5 ns; in that of `C#CC1=C(C)C2=C(c3ccc(OCCCCCCCCCCCC)cc3)c3c(C)c(C#C)c(C)n3[B-](F)(F)[N+]2=C1C` [Compound 6a], 4.2 ns.
